Each molecule was assayed against T1, FL-SMARCA2 (full-length human SMARCA2 isoform 1) (Homo sapiens, UniProt P51531) (assay: SMARCA2 ATPase activity assay (ADP-Glo, chicken mononucleosome substrate)). Conditions: Table 3a.1; SMARCA2 5 nM, ATP 250 uM, mononucleosome 10 nM.
T1 construct: FLAG tag (YKDDDDK) (C); made in house; host or cells: Sf21 insect cells (baculovirus, pFastBacI)
Assay type: biochemical

T1 sequence (P51531 with tags, fused parts or gaps): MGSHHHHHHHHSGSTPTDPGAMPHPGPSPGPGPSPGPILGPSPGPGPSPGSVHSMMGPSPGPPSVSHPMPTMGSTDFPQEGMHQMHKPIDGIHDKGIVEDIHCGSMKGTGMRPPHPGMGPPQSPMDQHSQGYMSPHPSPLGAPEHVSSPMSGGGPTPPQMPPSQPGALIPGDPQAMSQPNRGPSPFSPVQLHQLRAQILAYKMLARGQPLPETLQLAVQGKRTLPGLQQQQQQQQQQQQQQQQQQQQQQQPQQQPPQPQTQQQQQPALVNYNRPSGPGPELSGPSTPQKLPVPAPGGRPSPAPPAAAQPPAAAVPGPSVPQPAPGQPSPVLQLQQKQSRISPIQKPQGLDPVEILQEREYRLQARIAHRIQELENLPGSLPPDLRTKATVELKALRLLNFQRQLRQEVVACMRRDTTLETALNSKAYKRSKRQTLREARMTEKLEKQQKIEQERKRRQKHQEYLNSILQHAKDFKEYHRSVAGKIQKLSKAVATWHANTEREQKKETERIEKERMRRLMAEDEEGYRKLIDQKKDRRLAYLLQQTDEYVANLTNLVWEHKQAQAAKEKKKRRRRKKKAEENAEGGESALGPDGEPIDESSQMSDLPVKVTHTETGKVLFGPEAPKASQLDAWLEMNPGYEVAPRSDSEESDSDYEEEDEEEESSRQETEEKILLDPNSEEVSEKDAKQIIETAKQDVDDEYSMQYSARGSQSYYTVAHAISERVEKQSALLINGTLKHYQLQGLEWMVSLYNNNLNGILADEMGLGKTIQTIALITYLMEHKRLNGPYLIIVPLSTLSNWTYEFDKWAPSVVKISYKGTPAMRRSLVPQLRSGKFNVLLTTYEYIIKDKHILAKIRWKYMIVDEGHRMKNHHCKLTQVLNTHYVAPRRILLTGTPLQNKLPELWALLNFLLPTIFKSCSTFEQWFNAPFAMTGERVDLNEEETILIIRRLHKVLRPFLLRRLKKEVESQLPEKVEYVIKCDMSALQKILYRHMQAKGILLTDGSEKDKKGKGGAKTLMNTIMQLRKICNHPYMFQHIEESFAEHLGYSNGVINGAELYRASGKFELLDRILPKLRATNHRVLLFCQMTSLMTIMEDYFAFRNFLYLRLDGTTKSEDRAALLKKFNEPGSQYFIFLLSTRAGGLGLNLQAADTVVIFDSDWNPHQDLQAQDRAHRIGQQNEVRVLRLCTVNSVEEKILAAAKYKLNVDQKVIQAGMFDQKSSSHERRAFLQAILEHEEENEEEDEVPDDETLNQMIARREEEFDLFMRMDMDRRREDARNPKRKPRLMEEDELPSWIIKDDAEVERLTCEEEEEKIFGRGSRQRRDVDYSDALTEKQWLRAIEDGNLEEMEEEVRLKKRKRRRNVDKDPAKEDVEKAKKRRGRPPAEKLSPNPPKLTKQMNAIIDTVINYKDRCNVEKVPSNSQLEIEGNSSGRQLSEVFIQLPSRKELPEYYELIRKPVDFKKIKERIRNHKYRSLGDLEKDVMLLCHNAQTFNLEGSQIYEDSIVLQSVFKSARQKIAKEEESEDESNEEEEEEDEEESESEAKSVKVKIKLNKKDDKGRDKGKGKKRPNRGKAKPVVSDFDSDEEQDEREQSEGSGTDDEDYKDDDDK

SMILES	IC50 [µM]
O=C(Nc1cc(F)c(=O)n(CCF)c1)c1cc2n(n1)CCNC2=O [Compound 64a]	> 50
O=C(Nc1ccc(=O)n(CC(F)(F)F)c1)c1nc2cc(F)c(Cl)cc2s1 [Compound 44a]	42.5
CN1C(=O)CCC1C(=O)Nc1cc(F)c(=O)n(CCF)c1 (stereo not shown) [Compound 50a]	> 50
CN1C(=O)CCCC1C(=O)Nc1cc(F)c(=O)n(CCF)c1 (stereo not shown) [Compound 48a]	> 50
CCn1cc(NC(=O)c2cc(C(F)(F)F)ccn2)ccc1=O [Compound 59a]	> 50
O=C(Nc1cc(F)c(=O)n(CCF)c1)c1cc2cncnc2[nH]1 [Compound 66a]	32.1
CCn1cc(NC(=O)c2nc3cc(F)c(Cl)cc3s2)ccc1=O [Compound 46a]	42.7
CCn1cc(NC(=O)c2ccc(Cl)c(C)n2)ccc1=O [Compound 35a]	> 50
CCn1cc(NC(=O)c2c[nH]c3ccccc23)ccc1=O [Compound 22a]	> 50
CCn1cc(NC(=O)c2nc3cc(Cl)c(F)cc3[nH]2)ccc1=O [Compound 32a]	> 50
CCn1cc(NC(=O)c2ccc(=O)n(-c3ccccc3F)n2)ccc1=O [Compound 1a]	> 50

Same assay, conditions: Table 3b.1; SMARCA2 5 nM, ATP 250 uM, mononucleosome 10 nM

SMILES	IC50 [µM]
CCn1cc(NC(=O)c2ccc(F)c(Cl)c2)ccc1=O [Compound 8b]	> 50
CCn1cc(NC(=O)c2ccc(Cl)c(Cl)c2)ccc1=O [Compound 4b]	42
CCn1cc(NC(=O)C2CCCCC2)ccc1=O [Compound 12b]	> 50
CN(C)C(=O)c1ccc(C(=O)Nc2cc(F)c(=O)n(CCF)c2)cc1 [Compound 21b]	> 50

Same assay, conditions: Table 3c.1; ATPase assay, enzyme 5 nM, ATP 250 uM, chicken mononucleosome 10 nM, 30 min preincubation

SMILES	IC50 [µM]
O=C(Nc1cc(F)c(=O)n(CC(F)F)c1)c1cc(C#CC2COC2)c(F)s1 [Compound 108c]	0.0818
O=C(Nc1cc(-c2cn[nH]c2)c(=O)n(CC(F)F)c1)c1sc(C(F)(F)F)cc1Cl [Compound 20c]	> 50
O=C(Nc1cc(-c2c[nH]cn2)c(=O)n(CC(F)F)c1)c1sc(C(F)(F)F)cc1Cl [Compound 31c]	> 50
O=C(Nc1cc(F)c(=O)n(CC(F)F)c1)c1cc(C#Cc2ccnnc2)c(Cl)s1 [Compound 133c]	0.0139
O=C(Nc1cc(F)c(=O)n(CC(F)F)c1)[C@@H]1CCCN1 [Compound 15c]	> 50
O=C(Nc1cc(-c2cn[nH]c2)c(=O)n(CC(F)F)c1)c1cc(Cl)c(C(F)(F)F)s1 [Compound 110c]	> 50
Cn1ccnc1-c1cc(NC(=O)c2sc(C(F)(F)F)cc2Cl)cn(CC(F)F)c1=O [Compound 51c]	> 50
O=C(Nc1cc(F)c(=O)n(CC(F)F)c1)c1cnc(C#Cc2ccncc2)s1 [Compound 33c]	8.9

Same assay, conditions: Table 3.1; ATPase assay, enzyme 5 nM, ATP 250 uM, chicken mononucleosome 10 nM, 30 min preincubation

SMILES	IC50 [µM]
N#Cc1sc(C(=O)Nc2ccc(=O)n(CC(F)(F)F)c2)cc1Cl [Compound 127]	0.252
CCn1cc(NC(=O)c2cc(C)sc2C)ccc1=O [Compound 33]	> 50
CC(C)Nc1ncc(C(=O)Nc2cc(F)c(=O)n(CCF)c2)s1 [Compound 225]	> 50
O=C(Nc1cc(F)c(=O)n(CCF)c1)c1cn(CC(F)(F)F)c(=O)s1 [Compound 277]	> 50
O=C(Nc1cc(F)c(=O)n(CCF)c1)c1cnc(Br)o1 [Compound 252]	> 50
CCn1cc(NC(=O)c2cc(Cl)c(Cl)s2)cc(C)c1=O [Compound 105]	27.8
CCn1cc(NC(=O)c2ccc(C)n2C(F)F)ccc1=O [Compound 52]	> 50
CCn1cc(NC(=O)c2cc(C#Cc3ccncc3)c(Cl)s2)ccc1=O [Compound 334]	0.182
Cc1cc(NC(=O)c2cc(Cl)c(Cl)s2)cn(C)c1=O [Compound 177]	> 50
CCc1cc(NC(=O)c2cc(Cl)c(Cl)s2)cn(C)c1=O [Compound 185]	> 50
O=C(Nc1cc(Cl)c(=O)n(CC(F)(F)F)c1)c1cc(Cl)c(Cl)s1 [Compound 102]	4.12
N#Cc1sc(C(=O)Nc2cc(C#N)c(=O)n(CCF)c2)cc1Cl [Compound 210]	0.207
N#Cc1cc(C(=O)Nc2ccc(=O)n(CC(F)F)c2)sc1Cl [Compound 320]	0.151
CCn1cc(NC(=O)c2cc(Cl)c(Cl)s2)cc(NC)c1=O [Compound 126]	46.8
CCn1cc(NC(=O)c2csc(NC3CCCC3)n2)ccc1=O [Compound 202]	> 50
O=C(Nc1cc(F)c(=O)n(CCc2cn[nH]c2)c1)c1cc(Cl)c(Cl)s1 [Compound 270]	> 50
CCn1cc(NC(=O)c2cc(Cl)c(Cl)[nH]2)ccc1=O [Compound 17]	4.06
CCn1cc(NC(=O)c2ccc(Cl)n2C)ccc1=O [Compound 18]	19.5
CCn1cc(NC(=O)c2cc(Cl)c(Cl)n2Cc2ccccc2)ccc1=O [Compound 57]	> 50
CN(C)CCn1cc(NC(=O)c2cc(Cl)c(Cl)n2C)ccc1=O [Compound 89]	> 50
CN(C)C(=O)c1sc(C(=O)Nc2cc(F)c(=O)n(CCF)c2)cc1Cl [Compound 282]	> 50

Same assay, conditions: Table 3d.1; ATPase assay, enzyme 5 nM, ATP 250 uM, chicken mononucleosome 10 nM, 30 min preincubation; read-out: FL-SMARCA2 IC>50

SMILES	IC50 [µM]
O=C(Nc1cc(F)c(=O)n(CC(F)F)c1)c1ccc(-c2ccccn2)s1 [Compound 34d]	> 50
CN(C)CC#Cc1cc(NC(=O)c2cc(F)c(Cl)s2)cn(CC(F)F)c1=O [Compound 45d]	> 50
NC(=O)c1cc(C(=O)Nc2cc(F)c(=O)n(CC(F)F)c2)sc1C(F)(F)F [Compound 35d]	> 50
CCc1cc(=O)n(CC)cc1NC(=O)c1cc(Cl)c(Cl)s1 [Compound 28d]	> 50
COc1cc(Cl)c(Cl)cc1C(=O)Nc1cc(F)c(=O)n(CC(F)F)c1 [Compound 40d]	> 50
CSc1cc(NC(=O)c2cc(F)c(Cl)s2)cn(CC(F)F)c1=O [Compound 50d]	34.6
O=C(CNCC1CC1)Nc1ccc(=O)n(Cc2ccccc2Cl)c1 [Compound 6d]	22.4
O=C(Nc1cc(F)c(=O)n(CC(F)F)c1)c1cc(Cl)on1 [Compound 44d]	29.5
O=C(Nc1cc(F)c(=O)n(CC(F)F)c1)c1n[nH]c(Cl)n1 [Compound 38d]	> 50
Cc1cc(C)n(-c2ccc(C(=O)Nc3cn(C)c(=O)cc3C)cn2)n1 [Compound 2d]	> 50
O=C(Nc1cc(F)c(=O)n(CC(F)F)c1)c1sc(Cl)c(Cl)c1O [Compound 49d]	> 50
Cc1nc(-c2ccc(C(=O)Nc3cc(F)c(=O)n(CC(F)F)c3)s2)cs1 [Compound 33d]	> 50

The molecules below were run against FL-SMARCA4 (Homo sapiens, UniProt P51532) (assay: SMARCA4 ATPase activity assay (ADP-Glo, chicken mononucleosome substrate)). Conditions: FL-SMARCA4 IC50.
Chain of FL-SMARCA4 (P51532 whole entry): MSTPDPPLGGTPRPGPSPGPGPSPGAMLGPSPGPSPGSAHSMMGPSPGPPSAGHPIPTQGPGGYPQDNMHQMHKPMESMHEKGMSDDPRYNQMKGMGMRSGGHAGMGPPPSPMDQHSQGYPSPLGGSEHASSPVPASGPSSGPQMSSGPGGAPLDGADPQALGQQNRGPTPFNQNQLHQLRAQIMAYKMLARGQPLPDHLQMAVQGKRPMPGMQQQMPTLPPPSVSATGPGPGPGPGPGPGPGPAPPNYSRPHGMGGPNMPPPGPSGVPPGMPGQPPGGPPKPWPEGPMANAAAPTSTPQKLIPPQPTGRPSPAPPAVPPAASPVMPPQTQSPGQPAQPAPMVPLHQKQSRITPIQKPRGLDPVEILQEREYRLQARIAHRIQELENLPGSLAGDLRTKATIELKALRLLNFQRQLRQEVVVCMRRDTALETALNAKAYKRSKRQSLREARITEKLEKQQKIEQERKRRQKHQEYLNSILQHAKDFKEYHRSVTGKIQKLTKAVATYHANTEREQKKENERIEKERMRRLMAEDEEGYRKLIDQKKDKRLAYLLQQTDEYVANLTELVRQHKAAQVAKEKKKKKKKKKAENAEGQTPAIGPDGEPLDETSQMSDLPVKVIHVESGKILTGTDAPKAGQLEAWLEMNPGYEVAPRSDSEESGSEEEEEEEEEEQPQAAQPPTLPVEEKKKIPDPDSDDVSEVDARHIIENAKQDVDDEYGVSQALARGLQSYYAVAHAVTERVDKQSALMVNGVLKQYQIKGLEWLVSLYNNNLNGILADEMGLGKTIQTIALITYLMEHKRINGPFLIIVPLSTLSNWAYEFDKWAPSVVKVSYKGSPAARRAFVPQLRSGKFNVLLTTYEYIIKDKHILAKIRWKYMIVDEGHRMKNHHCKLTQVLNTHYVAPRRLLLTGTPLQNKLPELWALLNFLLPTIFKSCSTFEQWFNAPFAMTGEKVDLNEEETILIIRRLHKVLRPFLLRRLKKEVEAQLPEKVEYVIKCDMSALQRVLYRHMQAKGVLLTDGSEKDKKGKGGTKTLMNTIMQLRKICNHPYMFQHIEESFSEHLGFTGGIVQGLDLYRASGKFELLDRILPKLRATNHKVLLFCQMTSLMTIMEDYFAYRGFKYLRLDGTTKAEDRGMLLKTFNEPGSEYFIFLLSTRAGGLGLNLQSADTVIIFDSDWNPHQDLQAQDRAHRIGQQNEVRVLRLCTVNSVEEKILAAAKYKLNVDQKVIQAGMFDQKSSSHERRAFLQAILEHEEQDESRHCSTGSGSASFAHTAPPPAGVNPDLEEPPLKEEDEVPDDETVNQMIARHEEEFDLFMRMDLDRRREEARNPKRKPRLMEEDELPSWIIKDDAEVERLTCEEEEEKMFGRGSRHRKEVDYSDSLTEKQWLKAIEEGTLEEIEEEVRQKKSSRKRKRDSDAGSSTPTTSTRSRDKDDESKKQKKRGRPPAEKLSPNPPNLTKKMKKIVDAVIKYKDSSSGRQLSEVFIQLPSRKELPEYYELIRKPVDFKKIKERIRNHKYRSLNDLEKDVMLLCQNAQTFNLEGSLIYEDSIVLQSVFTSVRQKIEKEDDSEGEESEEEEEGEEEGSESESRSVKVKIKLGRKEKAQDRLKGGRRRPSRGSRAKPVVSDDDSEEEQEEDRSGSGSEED

SMILES	IC50 [µM]
O=C(Nc1cc(F)c(=O)n(CC(F)F)c1)c1ccc(-c2ccccn2)s1 [Compound 34d]	> 50
CN(C)CC#Cc1cc(NC(=O)c2cc(F)c(Cl)s2)cn(CC(F)F)c1=O [Compound 45d]	> 50
NC(=O)c1cc(C(=O)Nc2cc(F)c(=O)n(CC(F)F)c2)sc1C(F)(F)F [Compound 35d]	> 50
CCc1cc(=O)n(CC)cc1NC(=O)c1cc(Cl)c(Cl)s1 [Compound 28d]	> 50
COc1cc(Cl)c(Cl)cc1C(=O)Nc1cc(F)c(=O)n(CC(F)F)c1 [Compound 40d]	> 50
CSc1cc(NC(=O)c2cc(F)c(Cl)s2)cn(CC(F)F)c1=O [Compound 50d]	> 50
O=C(CNCC1CC1)Nc1ccc(=O)n(Cc2ccccc2Cl)c1 [Compound 6d]	> 50
O=C(Nc1cc(F)c(=O)n(CC(F)F)c1)c1cc(Cl)on1 [Compound 44d]	> 50
O=C(Nc1cc(F)c(=O)n(CC(F)F)c1)c1n[nH]c(Cl)n1 [Compound 38d]	> 50
Cc1cc(C)n(-c2ccc(C(=O)Nc3cn(C)c(=O)cc3C)cn2)n1 [Compound 2d]	> 50
O=C(Nc1cc(F)c(=O)n(CC(F)F)c1)c1sc(Cl)c(Cl)c1O [Compound 49d]	> 50
Cc1nc(-c2ccc(C(=O)Nc3cc(F)c(=O)n(CC(F)F)c3)s2)cs1 [Compound 33d]	> 50

Same assay, conditions: FL-SMARCA4 IC50, Table 3a.2; SMARCA4 5 nM, ATP 250 uM, mononucleosome 10 nM

SMILES	IC50 [µM]
O=C(Nc1cc(F)c(=O)n(CCF)c1)c1cc2n(n1)CCNC2=O [Compound 64a]	> 50
O=C(Nc1ccc(=O)n(CC(F)(F)F)c1)c1nc2cc(F)c(Cl)cc2s1 [Compound 44a]	> 50
CN1C(=O)CCC1C(=O)Nc1cc(F)c(=O)n(CCF)c1 (stereo not shown) [Compound 50a]	> 50
CN1C(=O)CCCC1C(=O)Nc1cc(F)c(=O)n(CCF)c1 (stereo not shown) [Compound 48a]	> 50
CCn1cc(NC(=O)c2cc(C(F)(F)F)ccn2)ccc1=O [Compound 59a]	> 50
O=C(Nc1cc(F)c(=O)n(CCF)c1)c1cc2cncnc2[nH]1 [Compound 66a]	> 50
CCn1cc(NC(=O)c2nc3cc(F)c(Cl)cc3s2)ccc1=O [Compound 46a]	41.1
CCn1cc(NC(=O)c2ccc(Cl)c(C)n2)ccc1=O [Compound 35a]	> 50
CCn1cc(NC(=O)c2c[nH]c3ccccc23)ccc1=O [Compound 22a]	> 50
CCn1cc(NC(=O)c2nc3cc(Cl)c(F)cc3[nH]2)ccc1=O [Compound 32a]	> 50
CCn1cc(NC(=O)c2ccc(=O)n(-c3ccccc3F)n2)ccc1=O [Compound 1a]	> 50

Same assay, conditions: FL-SMARCA4 IC50, Table 3b.2; SMARCA4 5 nM, ATP 250 uM, mononucleosome 10 nM

SMILES	IC50 [µM]
CCn1cc(NC(=O)c2ccc(F)c(Cl)c2)ccc1=O [Compound 8b]	> 50
CCn1cc(NC(=O)c2ccc(Cl)c(Cl)c2)ccc1=O [Compound 4b]	> 50
CCn1cc(NC(=O)C2CCCCC2)ccc1=O [Compound 12b]	> 50
CN(C)C(=O)c1ccc(C(=O)Nc2cc(F)c(=O)n(CCF)c2)cc1 [Compound 21b]	> 50

Same assay, conditions: FL-SMARCA4 IC50, Table 3.2; ATPase assay, enzyme 5 nM, ATP 250 uM, chicken mononucleosome 10 nM, 30 min preincubation

SMILES	IC50 [µM]
N#Cc1sc(C(=O)Nc2ccc(=O)n(CC(F)(F)F)c2)cc1Cl [Compound 127]	0.527
CCn1cc(NC(=O)c2cc(C)sc2C)ccc1=O [Compound 33]	> 50
CC(C)Nc1ncc(C(=O)Nc2cc(F)c(=O)n(CCF)c2)s1 [Compound 225]	> 50
O=C(Nc1cc(F)c(=O)n(CCF)c1)c1cn(CC(F)(F)F)c(=O)s1 [Compound 277]	> 50
O=C(Nc1cc(F)c(=O)n(CCF)c1)c1cnc(Br)o1 [Compound 252]	> 50
CCn1cc(NC(=O)c2cc(Cl)c(Cl)s2)cc(C)c1=O [Compound 105]	> 50
CCn1cc(NC(=O)c2ccc(C)n2C(F)F)ccc1=O [Compound 52]	> 50
CCn1cc(NC(=O)c2cc(C#Cc3ccncc3)c(Cl)s2)ccc1=O [Compound 334]	0.337
Cc1cc(NC(=O)c2cc(Cl)c(Cl)s2)cn(C)c1=O [Compound 177]	> 50
CCc1cc(NC(=O)c2cc(Cl)c(Cl)s2)cn(C)c1=O [Compound 185]	> 50
O=C(Nc1cc(Cl)c(=O)n(CC(F)(F)F)c1)c1cc(Cl)c(Cl)s1 [Compound 102]	18.6
N#Cc1sc(C(=O)Nc2cc(C#N)c(=O)n(CCF)c2)cc1Cl [Compound 210]	0.694
N#Cc1cc(C(=O)Nc2ccc(=O)n(CC(F)F)c2)sc1Cl [Compound 320]	0.562
CCn1cc(NC(=O)c2cc(Cl)c(Cl)s2)cc(NC)c1=O [Compound 126]	> 50
CCn1cc(NC(=O)c2csc(NC3CCCC3)n2)ccc1=O [Compound 202]	> 50
O=C(Nc1cc(F)c(=O)n(CCc2cn[nH]c2)c1)c1cc(Cl)c(Cl)s1 [Compound 270]	> 50
CCn1cc(NC(=O)c2cc(Cl)c(Cl)[nH]2)ccc1=O [Compound 17]	26.6
CCn1cc(NC(=O)c2ccc(Cl)n2C)ccc1=O [Compound 18]	> 50
CCn1cc(NC(=O)c2cc(Cl)c(Cl)n2Cc2ccccc2)ccc1=O [Compound 57]	> 50
CN(C)CCn1cc(NC(=O)c2cc(Cl)c(Cl)n2C)ccc1=O [Compound 89]	> 50
CN(C)C(=O)c1sc(C(=O)Nc2cc(F)c(=O)n(CCF)c2)cc1Cl [Compound 282]	> 50

Same assay, conditions: FL-SMARCA4 IC>50, Table 3c.2; ATPase assay, enzyme 5 nM, ATP 250 uM, chicken mononucleosome 10 nM, 30 min preincubation

SMILES	IC50 [µM]
O=C(Nc1cc(F)c(=O)n(CC(F)F)c1)c1cc(C#CC2COC2)c(F)s1 [Compound 108c]	0.2
O=C(Nc1cc(-c2cn[nH]c2)c(=O)n(CC(F)F)c1)c1sc(C(F)(F)F)cc1Cl [Compound 20c]	> 50
O=C(Nc1cc(-c2c[nH]cn2)c(=O)n(CC(F)F)c1)c1sc(C(F)(F)F)cc1Cl [Compound 31c]	> 50
O=C(Nc1cc(F)c(=O)n(CC(F)F)c1)c1cc(C#Cc2ccnnc2)c(Cl)s1 [Compound 133c]	0.0607
O=C(Nc1cc(F)c(=O)n(CC(F)F)c1)[C@@H]1CCCN1 [Compound 15c]	> 50
O=C(Nc1cc(-c2cn[nH]c2)c(=O)n(CC(F)F)c1)c1cc(Cl)c(C(F)(F)F)s1 [Compound 110c]	> 50
Cn1ccnc1-c1cc(NC(=O)c2sc(C(F)(F)F)cc2Cl)cn(CC(F)F)c1=O [Compound 51c]	> 50
O=C(Nc1cc(F)c(=O)n(CC(F)F)c1)c1cnc(C#Cc2ccncc2)s1 [Compound 33c]	8.15
